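Where inhibition never reached the appropriate level, the endpoint shown equals the highest concentration tested. Otherwise, values were interpolated linearly from a five-concentration, 48-hour dose response in 96-well plates. Abbreviation: GI50, concentration required for 50% inhibition of growth. TGI is the concentration that stops growth completely.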

From PubChem BioAssay (NCI) come the findings set out here.

Test systems include DU-145 prostate; MOLT-4 leukemia; COLO 205 colon; NCI-H460 lung; NCI-H23 lung; SNB-19 CNS; CCRF-CEM leukemia; SF-268 CNS; NCI/ADR-RES ovarian; SW-620 colon.
Holding throughout (assay): NCI-60 cell line screen, 48 h

`CN1CCN(CCNc2ccc(CO)c3sc4ccccc4c(=O)c23)CC1`: the GI50 with DU-145 prostate is 3.43 µM; with NCI/ADR-RES ovarian it was 2.56 µM. Moreover, the TGI in the test with DU-145 prostate was 11.9 µM; in the test on MOLT-4 leukemia, 12.3 µM; in the test on COLO 205 colon, 16.5 µM; with NCI-H460 lung it was 13.1 µM; in the test on NCI-H23 lung, 17.6 µM; in the test with SNB-19 CNS it was 36.1 µM. In addition, the TGI in the test on CCRF-CEM leukemia was above 48 µM; in the test on SF-268 CNS, 20.7 µM; in the test on NCI/ADR-RES ovarian, 14.3 µM; with SW-620 colon, 14.1 µM.
With `CCN(CC)CCOc1ccc2c(c1)C(=O)c1cc(OCCN(CC)CC)ccc1-2`, the GI50 in the test with DU-145 prostate was 14.8 µM; in the test with MOLT-4 leukemia, 5.27 µM; in the test on COLO 205 colon, 2.56 µM; in the test on NCI-H460 lung, 4.03 µM; in the test with NCI-H23 lung, 11.9 µM; with SNB-19 CNS it was 26.3 µM. The GI50 in the test with CCRF-CEM leukemia was 4.81 µM; in the test on SF-268 CNS it was 8.5 µM; in the test with NCI/ADR-RES ovarian, 9.63 µM; with SW-620 colon it was 4.04 µM. Moreover, the TGI with DU-145 prostate came out at 81.5 µM; with MOLT-4 leukemia it was 23.9 µM; with COLO 205 colon it was 9.38 µM; in the test on NCI-H460 lung, 15.2 µM; in the test with NCI-H23 lung it was 27.5 µM; in the test on SNB-19 CNS it was 61.7 µM. The TGI in the test on CCRF-CEM leukemia was 21 µM; with SF-268 CNS it was 33.1 µM; in the test with NCI/ADR-RES ovarian it was 33.2 µM; in the test with SW-620 colon, 20.6 µM.
With `CS(=O)(=O)CCn1c(=O)c(Oc2ccc(F)cc2F)cc2cnc(NC3CCOCC3)nc21`, the GI50 with DU-145 prostate, in the test on MOLT-4 leukemia, with COLO 205 colon, with NCI-H460 lung, with NCI-H23 lung and in the test with SNB-19 CNS was above 25 µM each time. Also, the GI50 in the test on CCRF-CEM leukemia, with SF-268 CNS, in the test with NCI/ADR-RES ovarian and in the test with SW-620 colon was above 25 µM each time. Besides, the TGI with DU-145 prostate, in the test on MOLT-4 leukemia, in the test with COLO 205 colon, in the test on NCI-H460 lung, in the test on NCI-H23 lung and in the test on SNB-19 CNS was above 25 µM each time. Besides, the TGI with CCRF-CEM leukemia, in the test on SF-268 CNS, with NCI/ADR-RES ovarian and in the test with SW-620 colon was above 25 µM in each case.
On to `NC(Cc1ccnnc1)C(=O)O` (configuration not stated), for which the TGI in the test on DU-145 prostate, in the test with MOLT-4 leukemia, in the test with COLO 205 colon, in the test with NCI-H460 lung, with NCI-H23 lung and in the test on SNB-19 CNS was above 100 µM each time. The TGI in the test on CCRF-CEM leukemia, in the test on SF-268 CNS, with NCI/ADR-RES ovarian and in the test with SW-620 colon was above 100 µM throughout.
`O=S(=O)(O)/C(=C\c1ccccc1)c1ccccc1` (tested in a mixture with another compound): the TGI in the test with DU-145 prostate, in the test with MOLT-4 leukemia, with COLO 205 colon, with NCI-H460 lung, in the test on NCI-H23 lung and in the test with SNB-19 CNS was above 100 µM in each case. For the same compound, the TGI with CCRF-CEM leukemia, with SF-268 CNS, in the test with NCI/ADR-RES ovarian and in the test with SW-620 colon was above 100 µM throughout.
For `CNC(=O)OC1C(O[C@H]2C[C@H]3[C@@H]4CC=C5C[C@@H](O)CC[C@]5(C)[C@H]4CC[C@]3(C)[C@H]2[C@H](C)C(=O)CCC(C)C)OCC(O)C1OC1OCC(O)C(O)C1OC(=O)c1ccc(OC)cc1` (some centres not stated), the GI50 in the test on DU-145 prostate was 0.0246 µM; in the test on MOLT-4 leukemia it was 0.00824 µM; with COLO 205 colon, 0.0579 µM; in the test with NCI-H460 lung, 0.0115 µM; in the test on NCI-H23 lung it was 0.134 µM; in the test on SNB-19 CNS, 0.0204 µM. Moreover, the GI50 is 0.00566 µM with CCRF-CEM leukemia, 0.0226 µM in the test on SF-268 CNS, 7.1 µM in the test with NCI/ADR-RES ovarian and 0.0122 µM in the test on SW-620 colon. In addition, the TGI in the test with DU-145 prostate is 6.12 µM; in the test with MOLT-4 leukemia it was 0.0242 µM; in the test on COLO 205 colon, 0.361 µM; with NCI-H460 lung, 0.491 µM; in the test with NCI-H23 lung, 4.59 µM; in the test on SNB-19 CNS it was 3.89 µM. The TGI was 0.0373 µM in the test with CCRF-CEM leukemia, 2.78 µM with SF-268 CNS, 27.5 µM in the test on NCI/ADR-RES ovarian and 0.383 µM in the test on SW-620 colon.
On to `C/C1=C/C(=O)O[C@@H]2C[C@@H](CC[C@H](C)/C=C\C=C\CC1)O[C@@](OCCc1ccccc1)([C@@H]1CSC(=O)N1)C2`, for which the GI50 was 0.282 µM with DU-145 prostate; above 5.2 µM in the test with MOLT-4 leukemia; 0.0845 µM in the test on COLO 205 colon; 0.27 µM with NCI-H460 lung; 0.142 µM in the test with NCI-H23 lung; 0.12 µM with SNB-19 CNS. Further, the GI50 in the test with CCRF-CEM leukemia was 0.282 µM; with SF-268 CNS it was 0.0784 µM; in the test with NCI/ADR-RES ovarian, 2.95 µM; in the test on SW-620 colon, 7.04 µM. Further, the TGI in the test on DU-145 prostate was above 17.5 µM; in the test on MOLT-4 leukemia it was above 17.5 µM; in the test on COLO 205 colon, 0.401 µM; in the test with NCI-H460 lung it was above 17.5 µM; in the test with NCI-H23 lung, above 17.5 µM; with SNB-19 CNS it was above 17.5 µM. In addition, the TGI in the test on CCRF-CEM leukemia is above 17.5 µM; in the test on SF-268 CNS, 0.377 µM; with NCI/ADR-RES ovarian, above 17.5 µM; in the test with SW-620 colon, above 17.5 µM.
As to `CCCCCCCCCCCCCC(=O)C(C)N` (configuration not stated), the GI50 in the test with DU-145 prostate was 2.59 µM; with MOLT-4 leukemia, 7.06 µM; in the test on COLO 205 colon, 1.95 µM; in the test with NCI-H460 lung, 4.16 µM; with NCI-H23 lung, 6.94 µM; in the test on SNB-19 CNS it was 13.5 µM. For the same compound, the GI50 with CCRF-CEM leukemia was 8.35 µM; in the test with SF-268 CNS, 3.96 µM; in the test on NCI/ADR-RES ovarian, 13.7 µM; in the test with SW-620 colon, 11.6 µM. The TGI in the test with DU-145 prostate came to 7.35 µM; with MOLT-4 leukemia, 23.5 µM; in the test with COLO 205 colon, 3.87 µM; in the test with NCI-H460 lung, 15.3 µM; in the test with NCI-H23 lung, 21.9 µM; in the test on SNB-19 CNS it was 30.7 µM. Besides, the TGI is 27.2 µM in the test with CCRF-CEM leukemia, 16 µM in the test with SF-268 CNS, 29.4 µM with NCI/ADR-RES ovarian and 27.2 µM with SW-620 colon.
